For 47 molecules, IC50 results are on record in BindingDB's records for doi:10.3109/14756366.2013.793184 (Nycomed, 2014).

In the test the target is Inosine-5'-monophosphate dehydrogenase 2 (Homo sapiens, UniProt P12268). Put plainly: Enzyme Assay. Particulars: pH 8; 37 °C. The protocol: The reaction was initiated by the addition of 300 μM of IMP and 500 μM of NAD+ and the assay was allowed to proceed at 37 °C for 50 min before stopping by the addition of 15 mM GMP. The NADH generated was measured by reading the absorbance at 340 nm.

“And” between values parts separate entries of the source, which are not always exact repeats. Equal entries are not always repeated.

The IC50 is the concentration at which inhibition is half-maximal. `COc1cc(N/C(=N/C#N)Nc2cccc(-c3nnn(C)n3)c2)ccc1C#N` [IMPDH II inhibitor, 47] displayed an IC50 below 30 µM.
Next, `COc1cc(N/C(=N/C#N)Nc2cccc(-c3ccc(C#N)cc3)c2)ccc1C#N` [IMPDH II inhibitor, 59]: below 30 µM.
In turn, `CCC(CC#N)OC(=O)N[C@@H](C)c1cccc(NC(=O)Nc2ccc3cc(OC)c(OC)cc3c2)c1` (some centres not stated) [IMPDH II inhibitor, 23] registered an IC50 below 30 µM.
With `CCC(CC#N)OC(=O)N[C@@H](C)c1cccc(NC(=N)Nc2ccc(C#N)c(OC)c2)c1` (some centres not stated) [IMPDH II inhibitor, 30], the IC50 is < 30 µM and 30 µM.
As for `COc1cc(N/C(=N/C#N)Nc2cccc(-c3cccc(F)c3)c2)ccc1C#N` [IMPDH II inhibitor, 55], the half-inhibitory concentration (IC50) is below 30 µM.
Next, `CCC(CC#N)OC(=O)N[C@@H](C)c1cccc(NC(=O)Nc2ccc3ncnc(OC)c3c2)c1` (some centres not stated) [IMPDH II inhibitor, 25]: below 30 µM; `CCC(CC#N)OC(=O)N[C@@H](C)c1cccc(NC(=O)Nc2ccc(C3CCOCC3)c(OC)c2)c1` (some centres not stated) [IMPDH II inhibitor, 17]: below 30 µM; `COc1cc(N/C(=N/C#N)Nc2cccc(-c3cccc(C#N)c3)c2)ccc1C#N` [IMPDH II inhibitor, 60]: below 30 µM.
The molecule `CCC(CC#N)OC(=O)N[C@@H](C)c1cccc(N/C(=N/C#N)Nc2ccc(C#N)c(OC)c2)c1` (some centres not stated) [IMPDH II inhibitor, 32] gave an IC50 of 3 µM.
Next, `CCC(CC#N)OC(=O)N[C@@H](C)c1cccc(NC(=O)Nc2ccc3c(c2)ncn3C)c1` (some centres not stated) [IMPDH II inhibitor, 21]: 14 µM; `COc1cc(N/C(=N/C#N)Nc2cccc(OCC(=O)O)c2)ccc1C#N` [IMPDH II inhibitor, 46]: below 30 µM; `COc1cc(N/C(=N/C#N)Nc2cccc(CCC(=O)O)c2)ccc1C#N` [IMPDH II inhibitor, 50]: below 30 µM.
Next, `COc1cc(N/C(=N/C#N)Nc2cccc(-c3ccccc3F)c2)ccc1C#N` [IMPDH II inhibitor, 54]: below 30 µM; `CCC(CC#N)OC(=O)N[C@@H](C)c1cccc(NC(=O)NS(=O)(=O)c2ccc(OC)c(OC)c2)c1` (some centres not stated) [IMPDH II inhibitor, 40]: below 30 µM.
`CCC(CC#N)OC(=O)N[C@@H](C)c1cccc(NC(=O)Nc2ccc3c(=O)ccoc3c2)c1` (some centres not stated) [IMPDH II inhibitor, 27] returned an IC50 below 10 µM.
With `COc1cc(N/C(=N/C#N)Nc2cccc(-c3ccc(F)cc3)c2)ccc1C#N` [IMPDH II inhibitor, 56], the IC50 was below 30 µM.
`CCC(CC#N)OC(=O)N[C@@H](C)c1cccc(NC(=O)Nc2ccc(C)c(OC)c2)c1` (some centres not stated) [IMPDH II inhibitor, 14] returned an IC50 of 19 µM.
The molecule `COc1cc(N/C(=N/C#N)Nc2cccc(-c3cccc(C(=O)O)c3)c2)ccc1C#N` [IMPDH II inhibitor, 58] yielded an IC50 below 30 µM.
`COc1cc(N/C(=N/C#N)Nc2cccc(-c3cccc(C(F)(F)F)c3)c2)ccc1C#N` [IMPDH II inhibitor, 57] came in with a half-maximal inhibitory concentration (IC50) below 30 µM.
In turn, `CCC(CC#N)OC(=O)N[C@@H](C)c1cccc(N/C(=C/[N+](=O)[O-])Nc2ccc(C#N)c(OC)c2)c1` (some centres not stated) [IMPDH II inhibitor, 34] returned an IC50 below 30 µM.
Next, `COc1cc(N/C(=N/C#N)Nc2cccc(C(=O)O)c2)ccc1C#N` [IMPDH II inhibitor, 53]: below 30 µM.
Next, `CCC(CC#N)OC(=O)N[C@@H](C)c1cccc(N/C(=C/[N+](=O)[O-])Nc2ccc(OC)c(OC)c2)c1` (some centres not stated) [IMPDH II inhibitor, 35]: below 30 µM; `CCC(CC#N)OC(=O)N[C@@H](C)c1cccc(NC(=O)Nc2ccc3c(=O)cc(C)oc3c2)c1` (some centres not stated) [IMPDH II inhibitor, 26]: below 30 µM; `CCC(CC#N)OC(=O)N[C@@H](C)c1cccc(NC(=O)Nc2ccc(OC)c(OC)c2)c1` (some centres not stated) [IMPDH II inhibitor, 13]: 0.23 µM.
`CCC(CC#N)OC(=O)N[C@@H](C)c1cccc(NC(=O)COc2ccc(OC)c(OC)c2)c1` (some centres not stated) [IMPDH II inhibitor, 39] displayed an IC50 below 30 µM.
`CCC(CC#N)OC(=O)N[C@@H](C)c1cccc(NC(=O)Nc2ccc(N3CCOCC3)c(OC)c2)c1` (some centres not stated) [IMPDH II inhibitor, 15] returned an IC50 below 30 µM.
As to `CCC(CC#N)OC(=O)N[C@@H](C)c1cccc(NC(=O)COc2ccc(C#N)c(OC)c2)c1` (some centres not stated) [IMPDH II inhibitor, 38], the half-maximal inhibitory concentration (IC50) was below 30 µM.
Next, `COc1cc(NC(=O)Nc2cccc(CNC(=O)OC3CCOC3)c2)ccc1-c1cnco1` (configuration not stated) [VX-497 (2)]: 0.0035 µM; `CCC(CC#N)OC(=O)N[C@@H](C)c1cccc(NC(=O)Nc2ccc3c(c2)C(C)CO3)c1` (some centres not stated) [IMPDH II inhibitor, 24]: below 30 µM; `CCC(CC#N)OC(=O)N[C@@H](C)c1cccc(NC(=O)CNc2ccc(C#N)c(OC)c2)c1` (some centres not stated) [IMPDH II inhibitor, 37]: below 30 µM.
`CCC(CC#N)OC(=O)N[C@@H](C)c1cccc(NC(=O)Nc2ccc(C#N)c(OC)c2)c1` (some centres not stated) [VX-148 (3)] returned an IC50 of 0.38 µM.
`COc1cc(N/C(=N/C#N)Nc2cccc(CC(=O)O)c2)ccc1C#N` [IMPDH II inhibitor, 52] showed a 50% inhibitory concentration (IC50) below 30 µM.
`CCC(CC#N)OC(=O)N[C@@H](C)c1cccc(NC(=N)Nc2ccc(OC)c(OC)c2)c1` (some centres not stated) [IMPDH II inhibitor, 31] came in with a concentration for half-maximal inhibition (IC50) below 30 µM.
`COc1cc(N/C(=N/C#N)Nc2cccc(-c3nnnn3C)c2)ccc1C#N` [IMPDH II inhibitor, 48] showed an IC50 below 30 µM.
On to `CCC(CC#N)OC(=O)N[C@@H](C)c1cccc(NC(=O)Nc2ccc(C3=CCOCC3)c(OC)c2)c1` (some centres not stated) [IMPDH II inhibitor, 16], for which the IC50 is 3.5 µM.
Take `CCC(CC#N)OC(=O)N[C@@H](C)c1cccc(Nc2nc3ccc(-c4ccc(C#N)c(OC)c4)cc3[nH]2)c1` (some centres not stated) [IMPDH II inhibitor, 44]: the IC50 is below 30 µM.
`COc1cc(N/C(=N/C#N)Nc2cccc(OCC(=O)C(C)=O)c2)ccc1C#N` [IMPDH II inhibitor, 45] showed an IC50 below 30 µM.
As for `CCC(CC#N)OC(=O)N[C@@H](C)c1cccc(NC(=O)Nc2ccc3c(c2)OCC3)c1` (some centres not stated) [IMPDH II inhibitor, 18], the IC50 came out at 10 µM.
For `CCC(CC#N)OC(=O)N[C@@H](C)c1cccc(NC(=O)N2CCN(c3ccc(C#N)c(OC)c3)CC2)c1` (some centres not stated) [IMPDH II inhibitor, 41], the IC50 is below 30 µM.
Regarding `CCC(CC#N)OC(=O)N[C@@H](C)c1cccc(NCC(=O)Nc2ccc(OC)c(OC)c2)c1` (some centres not stated) [IMPDH II inhibitor, 36], the IC50 was below 30 µM.
Consider `CCC(CC#N)OC(=O)N[C@@H](C)c1cccc(N/C(=N/C#N)Nc2ccc(OC)c(OC)c2)c1` (some centres not stated) [IMPDH II inhibitor, 33], for which half-maximal inhibition (IC50) was put at 5.6 µM.
In turn, `CCC(CC#N)OC(=O)N[C@@H](C)c1cccc(NC(=O)Nc2ccc3c(c2)OCO3)c1` (some centres not stated) [IMPDH II inhibitor, 20] yielded an IC50 above 30 µM.
In the case of `COc1cc(N/C(=N/C#N)Nc2cccc(Cc3nnn(C)n3)c2)ccc1C#N` [IMPDH II inhibitor, 49], the IC50 is below 30 µM.
Molecule `CCC(CC#N)OC(=O)N[C@@H](C)c1cccc(N2C(=O)CN(c3ccc(C#N)c(OC)c3)C2=O)c1` (some centres not stated) [IMPDH II inhibitor, 42] showed a half-inhibitory concentration (IC50) of 25 µM.
As to `CCC(CC#N)OC(=O)N[C@@H](C)c1cccc(NC(=O)c2cncc(-c3ccc(C#N)c(OC)c3)n2)c1` (some centres not stated) [IMPDH II inhibitor, 43], the concentration for half-maximal inhibition (IC50) is below 30 µM.
`COc1cc(N/C(=N/C#N)Nc2cccc(/C=C/C(=O)O)c2)ccc1C#N` [IMPDH II inhibitor, 51] yielded an IC50 below 30 µM.
In the case of `CCC(CC#N)OC(=O)N[C@@H](C)c1cccc(NC(=O)Nc2ccc3ncc(OC)nc3c2)c1` (some centres not stated) [IMPDH II inhibitor, 22], the 50% inhibitory concentration (IC50) was below 30 µM.
